According to the METLIN SMRT retention time set (Domingo-Almenara et al. 2019):

assay: gradient 5% acetonitrile 3 min, to 50% in 2 min, to 85% in 15 min, held 3 min, 100 µL/min; conditions: column: Zorbax Extend-C18 2.1 x 50 mm; eluents: water / acetonitrile, 0.1% formic acid
Method in brief: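 The system's dead and dwell volumes were 40 μL and 900 μL, with a Zorbax Extend-C18 column (2.1 × 50 mm, 1.8 μm) run at 100 μL/min in water and acetonitrile containing 0.1% formic acid each. Pure standards were analyzed in mixtures of ~100 molecules by HPLC–quadrupole time-of-flight mass spectrometry in positive and negative ionization mode. Retention time was assigned from computationally picked, manually inspected adduct peaks.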

| SMILES | RP-LC retention time [s] |
| --- | --- |
| COc1ccc(S(=O)(=O)NC2CCN(C(=O)C3CCN(C(C)=O)CC3)CC2)cc1 | 634 |
| Cc1ccc(NC(=O)CN2C(=O)CCCc3cc(S(=O)(=O)N4CCCC4)ccc32)cc1C | 824 |
| CCCn1cc(C(=O)NCCN2CCCC2)c2cccnc21 | 589 |
| CCCc1cc(NCc2ccccn2)n2ncc(-c3ccccc3)c2n1 | 894 |
| COc1ccc(CCS(=O)(=O)Nc2ccc(CC(=O)NCc3cccs3)cc2)cc1 | 782 |
| CC(C)N1CCN(C(=O)c2sc3ncccc3c2-n2cccc2)CC1 | 597 |
| CN1C(=O)[C@H]2CN(Cc3cn[nH]c3-c3ccc(F)cc3)C[C@H]2C1=O | 575 |
| CCOc1ccc(NC(=O)N2CCC3(CC2)NC(=O)c2ccc(Cl)cc2N3CC)cc1 | 874 |
| COc1ccc(NC(=O)c2cc(C(C)C)n(C3CCS(=O)(=O)C3)n2)cc1 (centres undefined) | 831 |
| Cc1ccccc1Sc1nccnc1SCC(=O)N1CCN(c2ccccn2)CC1 | 715 |
| CCCN(C(=O)Nc1cccc(C)c1C)c1nc(-c2ccc(C3CCCCC3)cc2)cs1 | 619 |
| Cc1ccc(-c2[nH]ncc2CN2CC(F)(F)C[C@H]2CN2CCOCC2)cc1C | 654 |
| O=C(Cn1c(=O)c2nncn2c2ncccc21)NCc1cc(F)ccc1F | 654 |
| O=C(NCC1CCCO1)c1cn(-c2ccccc2)nc1-c1ccccc1 (centres undefined) | 916 |
| CCn1c(=O)n(CC)c2cc(N3CCCC3)c(NC(=O)NCc3ccc(OC)cc3)cc21 | 643 |
| COCCNC(=O)CN1C(=O)C2CCCCN2c2ccc(C(=O)N3CCCC3)cc21 (centres undefined) | 653 |
| COc1ccc(-c2noc(-c3cccn3CC(=O)NCc3ccco3)n2)cc1F | 984 |
| O=C(c1ccsc1)N1CCN(c2cc(-c3ccccc3)[nH]n2)CC1 | 730 |
| Cc1ccc(-n2c(N3CCCC(C(=O)Nc4ccc(C)c(Cl)c4)C3)nc3ccsc3c2=O)cc1 (centres undefined) | 1160 |

More lines, now with the values ahead:

| RP-LC retention time [s] | SMILES |
| --- | --- |
| 1050 | O=S(=O)(Cc1ccccc1)N1CCCCC1c1noc(COCC2CC2)n1 (centres undefined) |
| 738 | CC(=O)N1CCc2cc(CNS(=O)(=O)c3ccc(F)cc3)ccc21 |
| 810 | CCCNC(=O)CCc1nc2ccccc2n(CC(=O)Nc2c(C)cccc2CC)c1=O |
| 882 | Cc1ccc(NC(=O)Cn2c(=O)n(-c3ccc(F)cc3)c(=O)c3c2cc(C)n3C)cc1F |
| 943 | CCOc1ccccc1-c1csc(NC(=O)Cc2csc(C)n2)n1 |
| 779 | Cc1ccnc(Nc2nc(C)c(C(=O)N3CCC(C)CC3)s2)c1 |
| 1060 | CCOC(=O)C1C(=O)C=C(c2cccs2)CC1c1ccc(OCC)cc1 (centres undefined) |
| 666 | CCOC(=O)C1CCCN(C(=O)CCC2CCCN(c3cc(NC4CC4)ncn3)C2)C1 (centres undefined) |
| 729 | CN(C)S(=O)(=O)N1CCc2nc(NC(=O)c3cccs3)sc2C1 |
| 796 | Cc1c(Cl)cccc1Nc1c(-c2ccc(C(=O)O)cc2)nc2cnccn12 |
| 692 | Cc1ccc(CNC(=O)Cn2c(=O)c3nnc(C)n3c3ncccc32)cc1 |
| 740 | Cc1nn(-c2ccccc2)c(C)c1S(=O)(=O)N1CCC(C(=O)N2CCOCC2)CC1 |
| 662 | CCCn1c(CCC(=O)Nc2ccc3c(c2)OCCO3)nc2cccnc21 |
| 950 | CC(NC(=O)Nc1cccc(Br)c1)C(=O)N1CCc2ccccc21 (centres undefined) |
| 717 | Cc1cc(C)n(-c2cc(N3CCCC(C(=O)Nc4nnc(C)s4)C3)ncn2)n1 (centres undefined) |
| 688 | Cc1nc(-c2cnccn2)n(CC(=O)Nc2ccc3c(c2)OCCO3)c(=O)c1C |
| 836 | COc1ccc(-c2nc(N3CCCC(C)C3)c3ccccc3n2)cc1 (centres undefined) |
| 757 | O=C(Nc1ccc(Cl)cc1)C1CCc2nc(N3CCOCC3)ncc2C1 (centres undefined) |
| 915 | O=C(CN1C(=O)CCCc2cc(S(=O)(=O)N3CCCC3)ccc21)NC1CCCCCCC1 |
| 658 | CCc1nccn1Cc1noc(-c2cccc(C)c2)n1 |
| 654 | CCOc1ccc(C2=NC3(CCN(C(C)C)CC3)NC(c3cc(Br)ccc3O)C2)cc1 (centres undefined) |
| 838 | O=C(C1=CN(c2ccc3c(c2)OCCO3)c2cc(Cl)ccc2S1(=O)=O)N1CCCC1 |
| 582 | Cc1cc(N2CCN(C(=O)c3ccc(C#N)cc3)CC2)nc2nnc(C)n12 |
| 862 | Cc1cc(C)cc(N2CCC(NC(=O)Nc3ccccc3)C2=O)c1 (centres undefined) |
| 607 | COc1nccc(N2CCC(CC(=O)NCc3cccc(OC)c3OC)CC2)n1 |
